Test results reported in patent publication US12571791B2, “Methods for evaluating cardiac safety of drug using cardiomyocytes derived from human stem cells” (NEXEL CO., LTD., priority 2021, dated 2026).

Tested on: human stem cell-derived cardiomyocytes
Protocol: First, step G-1, replaces the maintenance medium in the MEA plate that has undergone the 3rd incubation step (step F-3) with a fresh maintenance medium, and places the MEA plate into the cell culture incubator at 37° C. and 5% CO2 for 3 to 5 hours (preferably 3 hours) for stabilization of cells.
Next, the first set of measurement values on beat rate, spike amplitude, and field potential duration of the human stem cell-derived cardiomyocytes are taken (step G-2) with the MEA measurement device for the MEA plate that has undergone cell stabilization step (step G-1).
After the completion of the first measurement, a portion of the maintenance medium, which corresponds to 1/10 of the total volume in the well, is removed from wells of the MEA plate that has undergone the stabilization process. […]
Here, raw files stored in the MEA measurement device program are loaded, and the desired section of the data is re-recorded and saved as a CSV file. Then the drug's effect on the field potential of cardiomyocytes is evaluated by the changes in the reaction parameter, based on the first and second measurement values which include beat interval, spike amplitude, and field potential duration, to various concentrations of the drug.
In addition, the cardiac toxicity of a drug can be determined through changes in FPDcF and spike amplitude. […]

Cc1cccc(C)c1OCC(C)N (stereo not shown) [Mexiletine]
change in spike amplitude: decrease in the spike amplitude according to the drug concentration
